Converted amounts (≈) assume the structure as drawn. “Also recorded” adds a separate entry of the source.
Legend:
central nervous system = assay: psychopharmacological study / behaviour; type: in vivo, mice; settings: for sedation / sedative effect: high dose(s)
[1] = solubility in distilled water; type: physicochemical; settings: read-out: solubility limit
mice [2] = assay: toxicity (isolated mice, intraperitoneal); type: in vivo
Method: (§1) The following text summarises a part of the results of the tests which were carried out with the products according to the invention, these products (unless otherwise stated) being administered intraperitoneally, in suspension in a gum solution (gum arabic), in a volume of 20 ml/kg in the case of mice and of 5 ml/kg in the case of rats.

mice [3] = assay: traction (motor incoordination); type: in vivo, mice (EVIC CEBA strain)
mice [4] = assay: electrical shock (convulsing effects); type: in vivo, mice (EVIC CEBA strain); settings: i.p.
Method: as §1
(§2) The test is carried out on batches of 10 sensitive mice (EVIC CEBA strain), 30 minutes after the administration of CRL 40,373.
(§3) Batches of 10 mice are subjected to the test thirty minutes after having received CRL 40,385.

mice [5] = assay: four-plate test; type: in vivo, mice (EVIC CEBA strain); settings: i.p.
Method: as §1, §2, §3

mice [6] = assay: interaction with oxotremorine (temperature, trembling, peripheral cholinergic symptoms); type: in vivo; settings: mice, i.p.
man = assay: clinical use in man; type: in vivo; settings: pill 20 mg, 3 to 4 pills per day
mice [7] = assay: interaction with reserpine (hypothermia, ptosis); type: in vivo; settings: i.p.
mice [8] = assay: spontaneous motility (actimeter); type: in vivo; settings: mice
Method in brief: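 Compounds given i.p. as a gum arabic suspension at 20 ml/kg. Thirty minutes after dosing, mice (6 per dose, 12 controls) went into an actimeter and motility was recorded for half an hour.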

rats [9] = assay: interaction with amphetamine (stereotypies in rats); type: in vivo; settings: rats, i.p.
Method in brief: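 Test products given intraperitoneally as a gum arabic suspension (5 ml/kg in rats). Thirty minutes later, amphetamine 2 mg/kg is injected intraperitoneally; 6 animals per dose.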

rats [10] = assay: interaction with apomorphine (stereotype behaviour in rats); type: in vivo; settings: rats, i.p.
Method in brief: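 Rats in groups of six received the test compound intraperitoneally as a gum arabic suspension at 5 ml/kg. Thirty minutes later they were given apomorphine 0.5 mg/kg subcutaneously, and stereotyped behaviour was scored.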

mice [11] = assay: motility reduced by hypoxia treatment (motor recovery); type: in vivo; settings: mice, i.p.
mice [12] = assay: interaction with apomorphine in mice; type: in vivo
mice [13] = assay: inter-group aggressiveness (number of fights); type: in vivo
Method in brief: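 Mice were housed either three weeks (CRL 40,373) or 18 days (CRL 40,385, groups of 3) on each side of an opaque cage partition. Fights were counted over 15 min.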

mice [14] = assay: motility reduced by habituation to a cage (residual motility); type: in vivo; settings: i.p.
Method in brief: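 Mice habituated 18 hours in actimeters received compound intraperitoneally as a gum arabic suspension (20 ml/kg) and were returned to their cages. Motility was recorded for 30 minutes starting half an hour after dosing, with 6 animals per dose and 12 controls.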

rats [15] = assay: behaviour in rats; type: in vivo
Method: as §1

O=C(CC(=O)Nc1c(Cl)cccc1Cl)NO [CRL 40,510, 2,6-Dichlorophenyl-carbamoyl-acetohydroxamic acid]
sedation / sedative effect (central nervous system): moderate sedative effect | psychopharmacological profile / conclusion (central nervous system; mouse, in vivo): comes close to the benzodiazepines in respect of anxiolytic and anti-convulsive activities; also recorded: relative resistance to sedation | solubility [1]: ~13 mg/mL (≈ 49.4 mM) | LD-O (maximum non-lethal dose) (mice [2]; mice, i.p.): greater than 1,024 mg/kg | motor incoordination / incapacity (mice [3]; i.p.): absence of motor incapacity | anti-convulsive effect (mice [4]; also gastric administration): of the anti-convulsive type | anxiolytic effect (four plate test) (mice [5]; also gastric administration): effects of the anxiolytic type | oxotremorine-induced trembling (mice [6]): moderately antagonistic to the trembling movements caused by oxotremorine | clinical result (man): good results in man as an anxiolytic sedative agent

O=C(CNc1ccc(Cl)c(Cl)c1)NO [CRL 40,500, (3,4-Dichloroanilino)-acetohydroxamic acid]
reserpine-induced hypothermia (mice [7]): aggravation of the hypothermia due to reserpine | spontaneous motility (mice [8]; i.p., 32 and 128 mg/kg): moderately reduces the spontaneous motility of mice | sedation / sedative effect (central nervous system): moderate sedation at high doses | amphetamine-induced stereotypies (rats [9]): does not alter the stereotypies induced by apomorphine (rats and mice) and by amphetamine (rats) | mortality (mice [2]; i.p., 256 mg/kg): the mice survive | average time to death (mice [2]; i.p., 512 mg/kg): 18 h | relative toxicity (mice [2]; mouse, in vivo, ip): more toxic than the products studied above | symptoms / behaviour (mice [2]; mouse, in vivo, ip, 256 mg/kg): the symptoms are identical | apomorphine-induced stereotypies (rats [10]): does not alter the stereotypies induced by apomorphine | temperature (oxotremorine-induced hypothermia) (mice [6]): aggravation of the hypothermia due to reserpine and to oxotremorine | peripheral effects of oxotremorine (mice [6]; 128 and 32 mg/kg): increases the peripheral effects of oxotremorine | motor recovery after hypoxia/anoxia by pressure reduction (mice [11]): does not cause a marked improvement in the motor recovery of mice | apomorphine-induced stereotypies (mice [12]): does not alter the stereotypies induced by apomorphine | aggressiveness (mice [13]; low dose): reduction of aggressiveness which is substantial at low doses | inter-group aggressiveness (mice [13]; mice, i.p., all the doses studied): reduces the inter-group aggressiveness of mice | inter-group aggressiveness (mice [13]; mice, i.p., high doses (64 and 128 mg/kg)): a reduction of the effect is observed | inter-group aggressiveness (mice [13]; mice, i.p., lowest dose used (8 mg/kg)): present with considerable intensity | motility reduced by habituation to the cage (mice [14]; 128 mg/kg): moderate resumption of the motor activity of mice habituated to their cage

CC(C(=O)NO)[S+]([O-])Cc1ccc(Cl)cc1 (stereo not shown) [CRL 40,466, 2-(p-Chlorobenzylsulphinyl)-propionohydroxamic acid]
excitation (rats [15]): excitation, with hyper-reactivity | spontaneous motility (mice [8]; high dose): reduction in spontaneous motility | spontaneous motility (mice [8]; i.p., 8 mg/kg): appears to exhibit a stimulant effect on the motility | spontaneous motility (mice [8]; i.p., 512 mg/kg): depresses spontaneous motility in mice | reactivity (central nervous system; mice, high dose): hypo-reactivity | excitation (central nervous system; mice, low dose): excitation, with hyper-reactivity | body temperature effect (product alone) (central nervous system; mouse, in vivo): hypothermia | psychopharmacological profile / conclusion (central nervous system; mouse, in vivo): effects of the sedative type and effects of the psychostimulant type; also recorded: sedation in mice | ptosis (product alone) (central nervous system; mouse, in vivo): ptosis | amphetamine-induced stereotypies (rats [9]): does not markedly alter the stereotypies induced in rats by apomorphine and amphetamine | mortality (mice [2]; mice, i.p., 256, 512 and 1,024 mg/kg): does not cause any mortality whatsoever | motor incapacity (mice [3]; high dose): motor incapacity | convulsing effects of the electric shock (mice [4]; mice): antagonism to convulsions caused by electric shock | apomorphine-induced stereotypies (rats [10]): does not markedly alter the stereotypies induced in rats by apomorphine | number of incorrect moves (four-plate test) (mice [5]; mice): moderate (but significant) increase in the number of incorrect moves | oxotremorine-induced trembling (mice [6]): reduces the trembling movements due to oxotremorine | temperature (oxotremorine-induced hypothermia) (mice [6]): does not oppose hypothermia induced by oxotremorine | temperature (oxotremorine-induced hypothermia) (mice [6]; high doses): aggravates the hypothermia | motor recovery after hypoxia/anoxia by pressure reduction (mice [11]): moderate increase in the motility reduced by habituation or by the effects of hypoxia | aggressiveness (mice [13]; low dose): increase in aggressiveness | aggressiveness (mice [13]; mice, i.p., large/high dose): reduction of aggressiveness | motility reduced by habituation to the cage (mice [14]): moderate increase in the motility reduced by habituation

From US4151300A, “Acetohydroxamic acids” (Laboratoire L. Lafon, priority 1976, dated 1979)
